Measured values published in paper PMC7217150, “Synthesis, Modification, and Biological Evaluation of a Library of Novel Water‐Soluble Thiopyridone‐Based Organometallic Complexes and Their Unexpected (Biological) Behavior” (Chemistry (Weinheim an Der Bergstrasse, Germany), 2020).
Read-outs that look alike come from different tables or passages of the source.

Columns and labels:
A549 [1] = assay: MTT cytotoxicity assay, monolayer culture; format: cell-based, human; conditions: exposure time 96 h, means ± SDs
CH1/PA‐1 [2] = assay: MTT cytotoxicity assay, monolayer culture; format: cell-based, human; conditions: CH1/PA‐1, MTT assay, exposure time 96 h, means ± SDs
SW480 [3] = assay: MTT cytotoxicity assay, monolayer culture; format: cell-based, human
[4] = pH 7.2
Method: Stock solutions containing the desired complex in DMSO (5 mM) were diluted with phosphate buffer (pH 7.2) to a final concentration of […] compound in 1 % DMSO/20 mM buffer and directly analyzed by four different isocratic UHPLC runs (Δ=5 %). The lipophilicity parameters logkw and lipophilicity indices φ0 were calculated according to literature.7, 37

A549 [5] = conditions: A549 multicellular spheroids, 96 h drug exposure
Method: (§1) A549, CH1/PA‐1 and SW480 cells were grown in MEM supplemented with 10 % fetal calf serum (FCS; from Biowest), 1 mM sodium pyruvate, 4 mM L‐glutamine and 1 % v/v nonessential amino acids (from 100×solution) and L‐glutamine. HCT‐116 cells were maintained in McCoy's 5a medium supplemented with 10 % FCS and L‐glutamine. Adherent monolayer cultures were grown in 75 cm^2 flasks. For spheroid culture, A549, CH1/PA‐1 and HCT‐116 cells were harvested from culture flasks by trypsinization, resuspended in their respective supplemented medium and seeded in ultra‐low attachment round‐bottom 96‐well plates (Corning Costar) at a density of 500 viable cells per well. Plates were incubated for 96 h to allow spheroid formation prior to use for the tests. All cultures were incubated in a humidified incubator at 37 °C with 5 % CO2.
(§2) Cytotoxicity in multicellular spheroids was determined by the fluorimetric resazurin assay. […] After incubation for 96 h, 20 μL of a 440 μM resazurin sodium salt solution in PBS were added to each well, and the plates were incubated for further 16 h. Fluorescence was measured with a Synergy HT reader (BioTek) with an excitation wavelength of 530 nm and emission wavelength of 590 nm. For both assays, at least three independent experiments (or two in case of poor activity) were performed, each with triplicates per concentration level, and the 50 % inhibitory concentrations (IC50) relative to untreated controls were interpolated from concentration‐effect curves.

CH1/PA‐1 [6] = conditions: CH1/PA‐1 multicellular spheroids, 96 h drug exposure
Method: as §1, §2

HCT‐116 = HCT‐116 multicellular spheroids, 96 h drug exposure
Method: as §1, §2

CH1/PA‐1 [7] = assay: Cell cycle distribution, flow cytometry with propidium iodide; format: cell-based, human; conditions: for Cell cycle distribution G1, % / Cell cycle distribution G2/M, % / Cell cycle distribution S, %: 24 h, mean ± SD; for Relative change in cell cycle distribution G1, % / Relative change in cell cycle distribution G2/M, % / Relative change in cell cycle distribution S, %: difference to untreated control
Procedure, shortened: (§3)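 CH1/PA-1 and SW480 cells were allowed to attach for 24 h, then exposed continuously to compounds for 24 h at 37 °C. Nuclei were stained overnight at 4 °C with propidium iodide (50 μg mL^−1) in Triton/citrate buffer. 5×10^3 cells were analysed by flow cytometry, with G1/S/G2/M fractions fitted by the Watson Pragmatic model.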

SW480 [8] = assay: as above; format: cell-based, human; conditions: for Cell cycle distribution G1, % / Cell cycle distribution G2/M, % / Cell cycle distribution S, %: 24 h, mean ± SD; for Relative change in cell cycle distribution G1, % / Relative change in cell cycle distribution G2/M, % / Relative change in cell cycle distribution S, %: difference to untreated control
Procedure, shortened: as §3

[9] = tested on: human cancer cell lines CH1/PA‐1, SW480, A549
Method: Cytotoxicity of the compounds in monolayer cultures was determined by the colorimetric MTT assay (MTT=3‐(4,5‐dimethyl‐2‐thiazolyl)‐2,5‐diphenyl‐2H‐tetrazolium bromide). 1×10^3 CH1/PA‐1, 2×10^3 SW480 and 3×10^3 A549 cells were seeded in 100 μL supplemented MEM per well into 96‐well flat‐bottom microculture plates. […] After 96 h, the drug‐containing medium was replaced with 100 μL of RPMI 1640/MTT mixture [6 parts of RPMI 1640 medium (supplemented with 10 % heat‐inactivated fetal bovine serum and 4 mM L‐glutamine), 1 part of MTT solution in phosphate‐buffered saline (5 mg mL^−1)]. After incubation for 4 h, the mixture was replaced with 150 μL DMSO per well to dissolve the formazan product formed by viable cells. Optical densities at 550 nm (and at a reference wavelength of 690 nm) were measured with a microplate reader (ELx808, Bio‐Tek).

[10] = tested on: autochthonous colon cancer; design: method as in earlier work; conditions: rat model, well tolerable dose, cited from earlier work

CC1=C2[O][Ir+]([Cl])[S]=C2C=CN1Cc1ccccc1.Cc1c(C)c(C)[c-](C)c1C [Compound 6 c, Chlorido[1‐benzyl‐2‐methyl‐3‐oxo‐κO‐pyridine‐4(1H)‐thionato‐κS](η^5‐1,2,3,4,5‐pentamethylcyclopentadienyl)iridium(III)]
IC50 (A549 [1]): 1100 ± 200 nM
IC50 (CH1/PA‐1 [2]): 570 ± 50 nM
IC50 (SW480 [3]; SW480, MTT assay, exposure time 96 h, means ± SDs): 540 ± 70 nM
IC50 (SW480 [3]; SW480, as listed in Table 3): 540 ± 70 nM
φ0 (chromatographic lipophilicity index) [4]: 6.22
IC50 (A549 [5]): 136 ± 5 µM
IC50 (CH1/PA‐1 [6]): 114 ± 3 µM
IC50 (HCT‐116): 78 ± 2 µM
Cell cycle distribution G1, % (CH1/PA‐1 [7]; CH1/PA-1, 0.75 µM): 30 ± 4%
Cell cycle distribution G2/M, % (CH1/PA‐1 [7]; CH1/PA-1, 0.75 µM): 32 ± 4%
Cell cycle distribution S, % (CH1/PA‐1 [7]; CH1/PA-1, 0.75 µM): 38 ± 3%
Relative change in cell cycle distribution G1, % (CH1/PA‐1 [7]; CH1/PA-1, 0.75 µM): -10%
Relative change in cell cycle distribution G2/M, % (CH1/PA‐1 [7]; CH1/PA-1, 0.75 µM): 8%
Relative change in cell cycle distribution S, % (CH1/PA‐1 [7]; CH1/PA-1, 0.75 µM): 2%
Cell cycle distribution G1, % (CH1/PA‐1 [7]; CH1/PA-1, 1.25 µM): 30 ± 8%
Cell cycle distribution G2/M, % (CH1/PA‐1 [7]; CH1/PA-1, 1.25 µM): 33 ± 4%
Cell cycle distribution S, % (CH1/PA‐1 [7]; CH1/PA-1, 1.25 µM): 37 ± 6%
Relative change in cell cycle distribution G1, % (CH1/PA‐1 [7]; CH1/PA-1, 1.25 µM): -10%
Relative change in cell cycle distribution G2/M, % (CH1/PA‐1 [7]; CH1/PA-1, 1.25 µM): 9%
Relative change in cell cycle distribution S, % (CH1/PA‐1 [7]; CH1/PA-1, 1.25 µM): 1%
Cell cycle distribution G1, % (CH1/PA‐1 [7]; CH1/PA-1, 2.5 µM): 27 ± 4%
Cell cycle distribution G2/M, % (CH1/PA‐1 [7]; CH1/PA-1, 2.5 µM): 34 ± 3%
Cell cycle distribution S, % (CH1/PA‐1 [7]; CH1/PA-1, 2.5 µM): 39 ± 4%
Relative change in cell cycle distribution G1, % (CH1/PA‐1 [7]; CH1/PA-1, 2.5 µM): -13%
Relative change in cell cycle distribution G2/M, % (CH1/PA‐1 [7]; CH1/PA-1, 2.5 µM): 10%
Relative change in cell cycle distribution S, % (CH1/PA‐1 [7]; CH1/PA-1, 2.5 µM): 3%
decrease in G1 phase (CH1/PA‐1 [7]; CH1/PA‐1 cells, 2.5 μM): 13%
Cell cycle distribution G1, % (SW480 [8]; SW480, 0.75 µM): 40 ± 5%
Cell cycle distribution G2/M, % (SW480 [8]; SW480, 0.75 µM): 24 ± 5%
Cell cycle distribution S, % (SW480 [8]; SW480, 0.75 µM): 36 ± 2%
Relative change in cell cycle distribution G1, % (SW480 [8]; SW480, 0.75 µM): -8%
Relative change in cell cycle distribution G2/M, % (SW480 [8]; SW480, 0.75 µM): 5%
Relative change in cell cycle distribution S, % (SW480 [8]; SW480, 0.75 µM): 3%
Cell cycle distribution G1, % (SW480 [8]; SW480, 1.25 µM): 39 ± 13%
Cell cycle distribution G2/M, % (SW480 [8]; SW480, 1.25 µM): 22 ± 3%
Cell cycle distribution S, % (SW480 [8]; SW480, 1.25 µM): 38 ± 8%
Relative change in cell cycle distribution G1, % (SW480 [8]; SW480, 1.25 µM): -9%
Relative change in cell cycle distribution G2/M, % (SW480 [8]; SW480, 1.25 µM): 3%
Relative change in cell cycle distribution S, % (SW480 [8]; SW480, 1.25 µM): 5%
Cell cycle distribution G1, % (SW480 [8]; SW480, 2.5 µM): 43 ± 2%
Cell cycle distribution G2/M, % (SW480 [8]; SW480, 2.5 µM): 19 ± 3%
Cell cycle distribution S, % (SW480 [8]; SW480, 2.5 µM): 38 ± 5%
Relative change in cell cycle distribution G1, % (SW480 [8]; SW480, 2.5 µM): -5%
Relative change in cell cycle distribution G2/M, % (SW480 [8]; SW480, 2.5 µM): 0%
Relative change in cell cycle distribution S, % (SW480 [8]; SW480, 2.5 µM): 5%
decrease in G1 phase (SW480 [8]; SW480 cells, at applicable concentrations): < 9%
cellular concentration relative to 3 c (SW480 cells): 11 times
cellular concentration relative to 5 c (SW480 cells): 2 times
Cellular accumulation (SW480 cells; ICP‐MS, 2 h exposure, 50 μM): 1680±333 fg/cell
cytotoxicity relative to 3 c and 4 c [9]: up to 20 times
IC50 values, in words ([9]; tested cancer cell lines): high nanomolar range

[Cl-].[Cl-].[Cl-].[Cl-].[Ru+3].c1ccc2[nH][nH+]cc2c1.c1ccc2[nH]ncc2c1.c1ccc2[nH]ncc2c1 [KP1019, indazolium trans‐[tetrachlorido‐bis(1H‐indazole)ruthenate(III)]]
reduction of tumor volume ([10]; autochthonous colon cancer): up to 95%
weight loss [10]: no more than 6%
